Data reported in patent US20250042880A1 (UNIVERSITY OF KENTUCKY RESEARCH FOUNDATION, priority 2021, published 2025).

Experiments:
mitochondrial complex I = experiment: Mitochondrial ETC complex activity using PMP-permeabilized cells; format: cell-based
Experimental: Mitochondrial ETC complex activity measurements using PMP-Measurements of mitochondrial ETC complex activity were performed using the Agilent Seahorse Assay with XF PMP (Agilent, Santa Clara, CA) according to the manufacturer's instructions. Mitochondrial assay solution (MAS) was prepared with 220 mM mannitol, 70 mM sucrose, 10 mM KH2PO4, 5 mM MgCl2, 2 mM HEPES, 1 mM EGTA, and 0.2% (w/v) fatty acid free BSA. Cells were gen Ly washed with MAS and cell media was replaced with MAS supplemented with 4 mM adenosine diphosphate (ADP), 10 mM pyruvate, and 1 nM PMP. After calibration, the test was prompμLy carried out by measuring baseline with two cycles of 0.5 min mixing, 0.5 min waiting, and 2 min measuring. Following the baseline measurements, DMSO, test compounds or 2 μM rotenone, 10 mM succinate, 2 μM antimycin A, and a combination of 10 mM ascorbate and 100 μM TMPD were sequentially injected. The experiment data were then normalized to cell counts using Biotek Cytation 1 (BioTek Instruments, Winooski, VT, USA).
Mitochondrial ETC complex activity was measured using the Agilent Seahorse Assay with XF permeabilizer (PMP; Agilent) in compliance with the manufacturer's protocol. […] Following calibration, the baseline OCR was measured with cycles of 0.5-minute mixing, 0.5-minute waiting, and 2-minute measuring to perform the test. […]

[1] = tested on: SKOV-3 ovarian cancer xenograft; details: 4.5 mg/kg/day for 4 weeks; cited from earlier work
GLUT1 = biological target: T1, GLUT1 (Homo sapiens, UniProt P11166); details: cited from earlier work
T1 sequence (P11166 1-492): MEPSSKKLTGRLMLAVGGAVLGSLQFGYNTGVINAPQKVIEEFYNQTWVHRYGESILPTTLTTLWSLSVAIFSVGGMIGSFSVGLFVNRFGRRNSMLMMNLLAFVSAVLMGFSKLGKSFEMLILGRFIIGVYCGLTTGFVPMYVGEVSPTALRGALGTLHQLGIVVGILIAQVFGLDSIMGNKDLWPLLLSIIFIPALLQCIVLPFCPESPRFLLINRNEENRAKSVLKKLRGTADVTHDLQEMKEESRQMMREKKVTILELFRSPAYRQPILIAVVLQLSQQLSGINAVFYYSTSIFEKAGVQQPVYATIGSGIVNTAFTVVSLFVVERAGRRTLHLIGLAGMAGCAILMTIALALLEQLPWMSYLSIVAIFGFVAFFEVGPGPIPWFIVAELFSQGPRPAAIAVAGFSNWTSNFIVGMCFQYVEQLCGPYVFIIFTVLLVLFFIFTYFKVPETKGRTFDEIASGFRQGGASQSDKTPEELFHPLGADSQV

SMILES | ETC complex inhibited (conclusion of Seahorse assays) (mitochondrial complex I; ETC complex-specific inhibitors and PMP-permeabilized cells) | pyruvate/NADH-linked respiration (mitochondrial complex I; PMP-permeabilized CRC cells) | average weight loss compared to the control group [1] | reduction of average tumor volumes [1] | reduction of tumor weights [1] | potency for the GLUT1 transporter (GLUT1) | selectivity factor for GLUT1 in comparison with GLUT2, GLUT3 and GLUT4 (GLUT1)
O=c1c(-c2ccc(Cl)c(Cl)c2)coc2cc(OCCN3CCN(CCO)CC3)ccc12 [DBI-6, 3-(3,4-dichlorophenyl)-7-(2-(4-(2-hydroxyethyl)piperazin-1-yl)ethoxy)-4H-chromen-4-one] | complex I inhibitor | reduced pyruvate/NADH-linked respiration | – | – | – | – | –
Cc1c(NC(=O)c2cc(C(N)=O)nc3cc(F)ccc23)c(C(F)(F)F)nn1Cc1ccc(C#N)cc1 [BAY-876, N^4-[1-(4-cyanobenzyl)-5-methyl-3-(trifluoromethyl)-1H-pyrazol-4-yl]-7-fluoroquinoline-2,4-dicarboxamide] | – | – | 18% | 68% | 66% | single-digit, nanomolar | > 100
